Test results from patent publication US20250243189A1, “HERBICIDAL IMIDAZOLE-CONTAINING COMPOUNDS” (SYNGENTA CROP PROTECTION AG, priority 2022, published 2025).

Key:
Format in all cases: in vivo
Settings in all cases: 250 g/ha, evaluated after 13 days, five-point scale
AMAPA [1] = assay: Pre-emergence herbicidal glasshouse test
[2] = test system: Amaranthus retoflexus (AMARE); assay: Pre-emergence herbicidal glasshouse test
Procedure, shortened: (§1)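 Five-point damage score (5=81-100%, 4=61-80%, 3=41-60%, 2=21-40%, 1=0-20%) read 13 days post-spray. Treatment: 250 g/ha unless otherwise stated, aqueous spray from acetone/water (50:50) + 0.5% Tween 20, applied 1 day (pre) or 8 days (post) after sowing.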

IPOHE [3] = assay: Pre-emergence herbicidal glasshouse test
Procedure, shortened: as §1

Setaria faberi (SETFA) [4] = assay: Pre-emergence herbicidal glasshouse test
Procedure, shortened: as §1

[5] = test system: Echinochloa crus-galli (ECHCG); assay: Pre-emergence herbicidal glasshouse test
Procedure, shortened: as §1

AMAPA [6] = assay: Post-emergence herbicidal glasshouse test
[7] = test system: Amaranthus retoflexus (AMARE); assay: Post-emergence herbicidal glasshouse test
Procedure, shortened: as §1

IPOHE [8] = assay: Post-emergence herbicidal glasshouse test
Procedure, shortened: as §1

Setaria faberi (SETFA) [9] = assay: Post-emergence herbicidal glasshouse test
Procedure, shortened: as §1

[10] = test system: Echinochloa crus-galli (ECHCG); assay: Post-emergence herbicidal glasshouse test
Procedure, shortened: as §1

SMILES | percentage damage caused to the plant, AMAPA (AMAPA [1]) | percentage damage caused to the plant, AMARE [2] | percentage damage caused to the plant, IPOHE (IPOHE [3]) | percentage damage caused to the plant, SETFA (Setaria faberi (SETFA) [4]) | percentage damage caused to the plant, ECHCG [5] | percentage damage caused to the plant, AMAPA (AMAPA [6]) | percentage damage caused to the plant, AMARE [7] | percentage damage caused to the plant, IPOHE (IPOHE [8]) | percentage damage caused to the plant, SETFA (Setaria faberi (SETFA) [9]) | percentage damage caused to the plant, ECHCG [10]
Cc1sccc1-c1nc(C(F)(F)F)cn1Cc1ncc(Cl)cn1 [Compound 1.035] | 5 (5=81-100%) | 5 (5=81-100%) | 4 (4=61-80%) | 5 (5=81-100%) | 5 (5=81-100%) | 4 (4=61-80%) | 5 (5=81-100%) | 4 (4=61-80%) | 5 (5=81-100%) | 5 (5=81-100%)
Cc1c(-c2nc(C(F)(F)F)cn2Cc2ncc(Cl)cn2)cnn1C [Compound 1.012, 5-chloro-2-[[2-(1,5-dimethylpyrazol-4-yl)-4-(trifluoromethyl)imidazol-1-yl]methyl]pyrimidine] | 5 (5=81-100%) | 3 (3=41-60%) | 5 (5=81-100%) | 1 (1=0-20%) | 1 (1=0-20%) | 3 (3=41-60%) | 2 (2=21-40%) | 3 (3=41-60%) | 1 (1=0-20%) | 1 (1=0-20%)
FC(F)(F)c1cn(Cc2ncc(Cl)cn2)c(-c2ccsc2Cl)n1 [Compound 1.025] | 5 (5=81-100%) | 5 (5=81-100%) | 4 (4=61-80%) | 5 (5=81-100%) | 5 (5=81-100%) | 3 (3=41-60%) | 4 (4=61-80%) | 3 (3=41-60%) | 4 (4=61-80%) | 4 (4=61-80%)
